# From patent US9499565B2 (BEIJING XINTIANYU TECHNOLOGY DEVELOPMENT CO., LTD., priority 2012, dated 2016)
# Assay: Long-period stability test of powder injections
# Type: physicochemical
# Details: placed at room temperature for 28 months
# Experimental: All contents and purities in the present invention are determined using high performance liquid chromatography (HPLC), and chromatography conditions are: filler: octadecylsilane chemically bonded silica; mobile phase: 0.005 mol/L tetrabutyl ammonium hydroxide-acetonitrile (70:30) with pH of 5.0 adjusted by acetic acid; flow rate: 1.5 mL per minute; detection wavelength: 230 nm. The number of theoretical plates should not be less than 3500, as calculated according to sulbactam peak, the separation degree of […] peak and sulbactam peak should meet the requirements, and before official HPLC determination, the precision, accuracy, linearity and range of each specific to-be-quantified substance are also required to be subjected to methodology validation.
substance,measurement,value
cocrystal of piperacillin sodium and sulbactam sodium [cocrystal A],content of piperacillin sodium,higher than 96.5%
same,content of sulbactam sodium,higher than 96.5%
same,total content of related substances,≤ 2%
